Measurements published in PubChem BioAssay AID256 (DTP/NCI, 2004).
Where “and” joins values, the source holds several entries; their conditions need not be identical. Equal entries are not always repeated. Toxic doses and inconclusive results are not listed. The calls were made as follows: active = survival T/C of 150% or more; inactive = T/C below 125% in these data.

Test system: CD2F1 mice, L1210 leukemia ip, survival T/C
Assay: NCI In Vivo Anticancer Drug Screen. Data for tumor model L1210 Leukemia (intraperitoneal) in CD2F1 (CDF1) mice
Settings: endpoint: mean survival time, higher = longer survival
In short: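 Antitumor effect is scored in animals hosting a serially transplanted tumor. Values compare compound-dosed animals against vehicle-only controls as a simple quotient.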

[1] = dose: 100.0 mg/kg/injection, schedule: Q01DX009 (ip), vehicle: saline with Tween-80
[2] = dose: 100.0 mg/kg/injection, schedule: Q04DX003 (ip), vehicle: saline with Tween-80
[3] = dose: 200.0 mg/kg/injection, schedule: Q01DX009 (ip), vehicle: saline with Tween-80
[4] = dose: 200.0 mg/kg/injection, schedule: Q04DX003 (ip), vehicle: saline with Tween-80
[5] = dose: 400.0 mg/kg/injection, schedule: Q01DX009 (ip), vehicle: saline with Tween-80
[6] = dose: 400.0 mg/kg/injection, schedule: Q04DX003 (ip), vehicle: saline with Tween-80
[7] = dose: 100.0 mg/kg/injection, schedule: Q01DX001 (ip), vehicle: saline with Tween-80
[8] = dose: 200.0 mg/kg/injection, schedule: Q01DX001 (ip), vehicle: saline with Tween-80
[9] = dose: 400.0 mg/kg/injection, schedule: Q01DX001 (ip), vehicle: saline with Tween-80
[10] = dose: 25.0 mg/kg/injection, schedule: Q01DX009 (ip), vehicle: saline with Tween-80
[11] = dose: 100.0 mg/kg/injection, schedule: Q01DX001 (ip), vehicle: saline
[12] = dose: 200.0 mg/kg/injection, schedule: Q01DX001 (ip), vehicle: saline
[13] = dose: 100.0 mg/kg/injection, schedule: Q01DX009 (ip), vehicle: other
[14] = dose: 200.0 mg/kg/injection, schedule: Q01DX009 (ip), vehicle: other

Measured: T/C

[Cl][Pt+2][Cl].[NH-]C(CC([NH-])c1ccccc1)c1ccccc1 (stereo unspecified)
inactive: dose: 6.25 mg/kg/injection, schedule: Q04DX003 (ip), vehicle: saline with Tween-80 119 % of control and 113 % of control and 115 % of control | dose: 12.5 mg/kg/injection, schedule: Q04DX003 (ip), vehicle: saline with Tween-80 121 % of control and 113 % of control and 119 % of control | dose: 25.0 mg/kg/injection, schedule: Q04DX003 (ip), vehicle: saline with Tween-80 122 % of control and 113 % of control and 119 % of control

CCN1CCSC1=S
inactive: dose: 75.0 mg/kg/injection, schedule: Q01DX001 (ip), vehicle: other 102 % of control | dose: 150.0 mg/kg/injection, schedule: Q01DX001 (ip), vehicle: other 100 % of control | dose: 300.0 mg/kg/injection, schedule: Q01DX001 (ip), vehicle: other 103 % of control

CCCCN=C(C(=NCCCC)N(CCCC)CCCC)N(CCCC)CCCC
inactive: dose: 100.0 mg/kg/injection, schedule: Q04DX002 (ip), vehicle: saline with Tween-80 101 % of control | dose: 200.0 mg/kg/injection, schedule: Q04DX002 (ip), vehicle: saline with Tween-80 89 % of control | dose: 400.0 mg/kg/injection, schedule: Q04DX002 (ip), vehicle: saline with Tween-80 98 % of control

O=[N+]([O-])c1cccc(S(=O)(=O)Nc2ccccc2Cl)c1
inactive: [1] 97 % of control | [2] 96 % of control | [3] 92 % of control | [4] 96 % of control | [5] 95 % of control | [6] 95 % of control

O=C1c2cccc([N+](=O)[O-])c2C(=O)c2c1cccc2[N+](=O)[O-]
inactive: [7] 103 % of control | [8] 102 % of control | [9] 96 % of control

CN=C(NC)c1ccc(NC(=O)c2ccc(C(=O)Nc3ccc(C(=NC)NC)cc3)c(N)c2)cc1
active: dose: 2.25 mg/kg/injection, schedule: Q01DX Z (ip), vehicle: water 176 % of control | dose: 4.5 mg/kg/injection, schedule: Q01DX Z (ip), vehicle: water 176 % of control

Cc1ccoc1N(O)c1occc1C
inactive: [7] 93 % of control | [8] 101 % of control | [9] 95 % of control

Cc1ccc([N+](=O)[O-])cc1NC(=O)Oc1ccc(Cl)cc1
inactive: [1] 98 % of control | [2] 92 % of control | [3] 98 % of control | [4] 95 % of control | [5] 91 % of control | [6] 88 % of control

CCOC(=O)Oc1c(OC)cc(C(=O)O[C@@H]2C[C@@H]3CN4CCc5c([nH]c6cc(OC)ccc56)[C@H]4C[C@@H]3[C@H](C(=O)OC)[C@H]2OC)cc1OC
inactive: [10] 104 % of control | [1] 94 % of control | [2] 103 % of control

O=S(=O)(O)CN(CCN(CS(=O)(=O)O)CS(=O)(=O)O)CS(=O)(=O)O
inactive: dose: 100.0 mg/kg/injection, schedule: Q01DX009 (ip), vehicle: saline sonified 96 % of control | dose: 100.0 mg/kg/injection, schedule: Q04DX003 (ip), vehicle: saline 109 % of control | dose: 200.0 mg/kg/injection, schedule: Q01DX009 (ip), vehicle: saline sonified 92 % of control | dose: 200.0 mg/kg/injection, schedule: Q04DX003 (ip), vehicle: saline 97 % of control | dose: 400.0 mg/kg/injection, schedule: Q01DX009 (ip), vehicle: saline sonified 91 % of control | dose: 400.0 mg/kg/injection, schedule: Q04DX003 (ip), vehicle: saline 97 % of control

Clc1ccccc1CCCBr
inactive: [1] 96 % of control | [2] 92 % of control | [3] 104 % of control | [4] 97 % of control | [5] 106 % of control | [6] 88 % of control

CCCCCCCCN(C)N=Nc1ccccc1
inactive: dose: 79.0 mg/kg/injection, schedule: Q01DX009 (ip), vehicle: Klucel (hydroxypropylcellulose) (HPC) 110 % of control | dose: 177.0 mg/kg/injection, schedule: Q01DX009 (ip), vehicle: Klucel (hydroxypropylcellulose) (HPC) 124 % of control | dose: 266.0 mg/kg/injection, schedule: Q01DX009 (ip), vehicle: Klucel (hydroxypropylcellulose) (HPC) 122 % of control

Cc1csc2nc[nH]c(=O)c12
inactive: [1] 97 % of control | [3] 98 % of control | [5] 105 % of control

CCCCC[CH2][Sn](=[O])[CH2]CCCCC
inactive: [2] 100 % of control | [4] 97 % of control | [6] 111 % of control

CC(Br)C1(c2cccc([N+](=O)[O-])c2)OCCO1 (stereo unspecified)
inactive: dose: 12.0 mg/kg/injection, schedule: Q01DX009 (ip), vehicle: saline 96 % of control | dose: 25.0 mg/kg/injection, schedule: Q01DX009 (ip), vehicle: saline 112 % of control | dose: 50.0 mg/kg/injection, schedule: Q01DX009 (ip), vehicle: saline 106 % of control

CCC(C)(CC(=O)OC)C(=O)OC (stereo unspecified)
inactive: [11] 108 % of control | [12] 104 % of control | dose: 400.0 mg/kg/injection, schedule: Q01DX001 (ip), vehicle: saline 108 % of control

O=C(N/N=C/c1ccc2c(c1)CCC2)c1ccc([N+](=O)[O-])cc1
inactive: [2] 95 % of control | [4] 89 % of control | [6] 98 % of control

CC(=O)Nc1ccc(SC(=O)N(C)C)cc1
inactive: [2] 92 % of control

C[Si](C)(C)n1nnn(-c2ccccc2)c1=O
inactive: dose: 12.5 mg/kg/injection, schedule: Q01DX009 (ip), vehicle: saline with Tween-80 97 % of control and 100 % of control | [10] 97 % of control | dose: 50.0 mg/kg/injection, schedule: Q01DX009 (ip), vehicle: saline with Tween-80 97 % of control and 101 % of control | [1] 100 % of control and 103 % of control | [3] 100 % of control and 103 % of control | [5] 101 % of control

O=NN1CCOC1=NC1CCCCC1
inactive: dose: 3.12 mg/kg/injection, schedule: Q01DX001 (ip), vehicle: distilled water + Tween-80 97 % of control | dose: 6.25 mg/kg/injection, schedule: Q01DX001 (ip), vehicle: distilled water + Tween-80 94 % of control | dose: 12.5 mg/kg/injection, schedule: Q01DX001 (ip), vehicle: distilled water + Tween-80 98 % of control | dose: 25.0 mg/kg/injection, schedule: Q01DX001 (ip), vehicle: distilled water + Tween-80 97 % of control | dose: 50.0 mg/kg/injection, schedule: Q01DX001 (ip), vehicle: distilled water + Tween-80 100 % of control | dose: 100.0 mg/kg/injection, schedule: Q01DX001 (ip), vehicle: distilled water + Tween-80 100 % of control | dose: 200.0 mg/kg/injection, schedule: Q01DX001 (ip), vehicle: distilled water + Tween-80 110 % of control | dose: 400.0 mg/kg/injection, schedule: Q01DX001 (ip), vehicle: distilled water + Tween-80 110 % of control

CNC(=O)C1CCC(CC2CCCCC2)CC1 (stereo unspecified)
inactive: [7] 93 % of control | [8] 93 % of control | [9] 102 % of control

CC(=O)OCC1OC(OC(C)=O)C(NC(=O)NCCI)C(OC(C)=O)C1OC(C)=O (stereo unspecified)
inactive: dose: 12.5 mg/kg/injection, schedule: Q01DX009 (ip), vehicle: other 93 % of control | dose: 25.0 mg/kg/injection, schedule: Q01DX009 (ip), vehicle: other 95 % of control | dose: 50.0 mg/kg/injection, schedule: Q01DX009 (ip), vehicle: other 92 % of control | [13] 88 % of control | [14] 98 % of control

COc1cc(C=Nc2cc(Br)cc(Br)c2)ccc1N(CCCl)CCCl
active: dose: 200.0 mg/kg/injection, schedule: Q01DX001 (ip), vehicle: other 150 % of control

CCCCCCCCCCCCCCCCOc1ccccc1CNc1cc(C(F)(F)F)ccc1Cl
inactive: [13] 89 % of control | [14] 103 % of control | dose: 400.0 mg/kg/injection, schedule: Q01DX009 (ip), vehicle: other 91 % of control

Cn1c(-c2ccccc2N=NN2CCCCC2)nc(=N)c2ccccc21
inactive: dose: 6.25 mg/kg/injection, schedule: Q01DX005 (ip), vehicle: water 95 % of control | dose: 12.5 mg/kg/injection, schedule: Q01DX005 (ip), vehicle: water 95 % of control

CCS(=O)(=O)OCCCNCCCOS(=O)(=O)CC
active: [11] 160 % of control | [12] 186 % of control
inactive: dose: 12.5 mg/kg/injection, schedule: Q01DX001 (ip), vehicle: saline 103 % of control | dose: 25.0 mg/kg/injection, schedule: Q01DX001 (ip), vehicle: saline 105 % of control

CC(C)(C)C(=O)C(Br)S(=O)(=O)C(Br)(Br)C(=O)C(C)(C)C (stereo unspecified)
inactive: [1] 95 % of control | [3] 97 % of control | [5] 95 % of control

c1ccc2cc(OCCOCCOc3ccc4ccccc4c3)ccc2c1
inactive: [7] 103 % of control | [8] 100 % of control | [9] 97 % of control
